From ChEMBL document CHEMBL6109109, “Fatty acid binding protein 5 inhibitors as novel anticancer agents against metastatic castration-resistant prostate cancer” (Bioorg Med Chem, 2025)

Key:
Type in all cases: functional
[1] = Synergistic anticancer activity against mouse RCaP cells assessed as cell growth inhibition at […] measured after 72 hrs in presence of 1 uM of topotecan by MTT assay relative to control; details: dose 2.5 µM, read-out: GI
[2] = Synergistic anticancer activity against mouse RCaP cells assessed as cell growth inhibition at 5 uM measured after 72 hrs in presence of 0.1 uM of topotecan by MTT assay relative to control; details: read-out: GI
[3] = Cytotoxicity against mouse RCaP cells assessed as cell growth inhibition at 20 uM measured after 72 hrs by MTT assay relative to control; details: read-out: GI
[4] = test system: PC-3; test: Synergistic anticancer activity against human PC-3 cells assessed as cell growth inhibition at 10 uM measured after 72 hrs in presence of 10 uM of topotecan by MTT assay relative to control; details: read-out: GI
[5] = test system: PC-3; test: Synergistic anticancer activity against human PC-3 cells assessed as cell growth inhibition at 10 uM measured after 72 hrs in presence of 1 uM of topotecan by MTT assay relative to control; details: read-out: GI
[6] = test system: PC-3; test: Synergistic anticancer activity against human PC-3 cells assessed as cell growth inhibition at 10 uM measured after 72 hrs in presence of 0.1 uM of topotecan by MTT assay relative to control; details: read-out: GI
[7] = test system: PC-3; test: Synergistic anticancer activity against human PC-3 cells assessed as cell growth inhibition at 20 uM measured after 72 hrs in presence of 10 uM of topotecan by MTT assay relative to control; details: read-out: GI
[8] = test system: PC-3; test: Synergistic anticancer activity against human PC-3 cells assessed as cell growth inhibition at 5 uM measured after 72 hrs in presence of 1 uM of topotecan by MTT assay relative to control; details: read-out: GI
[9] = Synergistic anticancer activity against mouse RCaP cells assessed as cell growth inhibition at 20 uM measured after 72 hrs in presence of 0.00001 uM of topotecan by MTT assay relative to control; details: read-out: GI
[10] = Synergistic anticancer activity against mouse RCaP cells assessed as cell growth inhibition at 10 uM measured after 72 hrs in presence of 10 uM of topotecan by MTT assay relative to control; details: read-out: GI
[11] = Synergistic anticancer activity against mouse RCaP cells assessed as cell growth inhibition at 5 uM measured after 72 hrs in presence of 0.0001 uM of topotecan by MTT assay relative to control; details: read-out: GI
[12] = test system: PC-3; test: Synergistic anticancer activity against human PC-3 cells assessed as cell growth inhibition at 20 uM measured after 72 hrs in presence of 0.001 uM of topotecan by MTT assay relative to control; details: read-out: GI
[13] = test system: PC-3; test: Synergistic anticancer activity against human PC-3 cells assessed as cell growth inhibition at 20 uM measured after 72 hrs in presence of 0.00001 uM of topotecan by MTT assay relative to control; details: read-out: GI
[14] = Synergistic anticancer activity against mouse RCaP cells assessed as cell growth inhibition at 10 uM measured after 72 hrs in presence of 0.00001 uM of topotecan by MTT assay relative to control; details: read-out: GI
[15] = test system: PC-3; test: Synergistic anticancer activity against human PC-3 cells assessed as cell growth inhibition at 20 uM measured after 72 hrs in presence of 0.1 uM of topotecan by MTT assay relative to control; details: read-out: GI
[16] = test system: PC-3; test: Synergistic anticancer activity against human PC-3 cells assessed as cell growth inhibition at 20 uM measured after 72 hrs in presence of 1 uM of topotecan by MTT assay relative to control; details: read-out: GI
[17] = Synergistic anticancer activity against mouse RCaP cells assessed as cell growth inhibition at 10 uM measured after 72 hrs in presence of 0.0001 uM of topotecan by MTT assay relative to control; details: read-out: GI
[18] = Cytotoxicity against mouse RCaP cells assessed as cell growth inhibition at 5 uM measured after 72 hrs by MTT assay relative to control; details: read-out: GI
[19] = test system: PC-3; test: Synergistic anticancer activity against human PC-3 cells assessed as cell growth inhibition at 10 uM measured after 72 hrs in presence of 0.00001 uM of topotecan by MTT assay relative to control; details: read-out: GI
[20] = Synergistic anticancer activity against mouse RCaP cells assessed as cell growth inhibition at 5 uM measured after 72 hrs in presence of 0.00001 uM of topotecan by MTT assay relative to control; details: read-out: GI
[21] = test system: PC-3; test: Synergistic anticancer activity against human PC-3 cells assessed as cell growth inhibition at 5 uM measured after 72 hrs in presence of 0.001 uM of topotecan by MTT assay relative to control; details: read-out: GI
[22] = test system: PC-3; test: Synergistic anticancer activity against human PC-3 cells assessed as cell growth inhibition at 5 uM measured after 72 hrs in presence of 0.1 uM of topotecan by MTT assay relative to control; details: read-out: GI
[23] = test system: PC-3; test: Synergistic anticancer activity against human PC-3 cells assessed as cell growth inhibition at 10 uM measured after 72 hrs in presence of 0.01 uM of topotecan by MTT assay relative to control; details: read-out: GI
[24] = test system: PC-3; test: Cytotoxicity against human PC-3 cells assessed as cell growth inhibition at 20 uM measured after 72 hrs by MTT assay relative to control; details: read-out: GI
[25] = Synergistic anticancer activity against mouse RCaP cells assessed as cell growth inhibition at 20 uM measured after 72 hrs in presence of 10 uM of topotecan by MTT assay relative to control; details: read-out: GI
[26] = Synergistic anticancer activity against mouse RCaP cells assessed as cell growth inhibition at 5 uM measured after 72 hrs in presence of 0.01 uM of topotecan by MTT assay relative to control; details: read-out: GI
[27] = test system: PC-3; test: Synergistic anticancer activity against human PC-3 cells assessed as cell growth inhibition at 20 uM measured after 72 hrs in presence of 0.0001 uM of topotecan by MTT assay relative to control; details: read-out: GI
[28] = Synergistic anticancer activity against mouse RCaP cells assessed as cell growth inhibition at 5 uM measured after 72 hrs in presence of 0.001 uM of topotecan by MTT assay relative to control; details: read-out: GI
[29] = Synergistic anticancer activity against mouse RCaP cells assessed as cell growth inhibition at […] measured after 72 hrs in presence of 0.00001 uM of topotecan by MTT assay relative to control; details: dose 2.5 µM, read-out: GI
[30] = Synergistic anticancer activity against mouse RCaP cells assessed as cell growth inhibition at […] measured after 72 hrs in presence of 0.0001 uM of topotecan by MTT assay relative to control; details: dose 2.5 µM, read-out: GI
[31] = Synergistic anticancer activity against mouse RCaP cells assessed as cell growth inhibition at 10 uM measured after 72 hrs in presence of 0.1 uM of topotecan by MTT assay relative to control; details: read-out: GI
[32] = Synergistic anticancer activity against mouse RCaP cells assessed as cell growth inhibition at 20 uM measured after 72 hrs in presence of 0.01 uM of topotecan by MTT assay relative to control; details: read-out: GI
[33] = Synergistic anticancer activity against mouse RCaP cells assessed as cell growth inhibition at 5 uM measured after 72 hrs in presence of 10 uM of topotecan by MTT assay relative to control; details: read-out: GI
[34] = Synergistic anticancer activity against mouse RCaP cells assessed as cell growth inhibition at 10 uM measured after 72 hrs in presence of 0.001 uM of topotecan by MTT assay relative to control; details: read-out: GI

Row | Compound | inhibition of growth at […] [1] [%] | inhibition of growth at 5 µM [2] [%] | inhibition of growth at 20 µM [3] [%] | inhibition of growth at 10 µM [4] [%] | inhibition of growth at 10 µM [5] [%] | inhibition of growth at 10 µM [6] [%] | inhibition of growth at 20 µM [7] [%] | inhibition of growth at 5 µM [8] [%] | inhibition of growth at 20 µM [9] [%] | inhibition of growth at 10 µM [10] [%] | inhibition of growth at 5 µM [11] [%] | inhibition of growth at 20 µM [12] [%] | inhibition of growth at 20 µM [13] [%] | inhibition of growth at 10 µM [14] [%] | inhibition of growth at 20 µM [15] [%] | inhibition of growth at 20 µM [16] [%] | inhibition of growth at 10 µM [17] [%] | inhibition of growth at 5 µM [18] [%] | inhibition of growth at 10 µM [19] [%] | inhibition of growth at 5 µM [20] [%] | further results
1 | COc1ccccc1[C@H]1[C@H](C(=O)O)[C@H](c2ccccc2OC)[C@H]1C(=O)OCC1c2ccccc2-c2ccccc21 | 98.1 | 93.6 | 98.2 | 86.2 | 82.2 | 66.8 | 92.3 | 81 | 98.1 | 99.2 | 17.6 | 99.8 | 99.3 | 76.5 | 99.8 | 99.8 | 75.1 | 8.67 | 56.3 | 9.57 | inhibition of growth at 5 µM [21]: 28.7%; inhibition of growth at 5 µM [22]: 56.3%; inhibition of growth at 10 µM [23]: 64.8%; inhibition of growth at 20 µM [24]: 89.1%; inhibition of growth at 20 µM [25]: 99.3%; inhibition of growth at 5 µM [26]: 31.8%; inhibition of growth at 20 µM [27]: 99.8%; inhibition of growth at 5 µM [28]: 32.3%; inhibition of growth at […] [29]: 0.97%; inhibition of growth at […] [30]: -4.8%; inhibition of growth at 10 µM [31]: 94.3%; inhibition of growth at 20 µM [32]: 98.2%; inhibition of growth at 5 µM [33]: 99.4%; inhibition of growth at 10 µM [34]: 76.7%
2 | O=C(O)[C@H]1[C@H](c2ccccc2)[C@H](C(=O)Oc2cc(-c3ccc4c(c3)OCO4)ccc2-c2ccccc2)[C@H]1c1ccccc1 | 98.6 | 87.2 | 94.7 | 90.8 | 92 | 82.4 | 98.2 | 72.2 | 97.6 | 99.9 | 24.6 | 98.4 | 98.1 | 68.4 | 98.5 | 99.3 | 68 | 22.5 | 78.9 | 27 | inhibition of growth at 5 µM [21]: 29.1%; inhibition of growth at 5 µM [22]: 49.9%; inhibition of growth at 10 µM [23]: 83%; inhibition of growth at 20 µM [24]: 96.1%; inhibition of growth at 20 µM [25]: 99.2%; inhibition of growth at 5 µM [26]: 34.4%; inhibition of growth at 20 µM [27]: 89%; inhibition of growth at 5 µM [28]: 28.3%; inhibition of growth at […] [29]: 5.43%; inhibition of growth at […] [30]: 10.1%; inhibition of growth at 10 µM [31]: 97.2%; inhibition of growth at 20 µM [32]: 97.8%; inhibition of growth at 5 µM [33]: 99.6%; inhibition of growth at 10 µM [34]: 71.9%
3 | COc1ccccc1[C@H]1[C@H](C(=O)O)[C@H](c2ccccc2OC)[C@H]1C(=O)Oc1cc(-c2ccc3c(c2)OCO3)ccc1-c1ccccc1 | 98.2 | 91.9 | 99.7 | 92.2 | 88.7 | 81.4 | 98.8 | 89.8 | 100 | 97 | 26.8 | 99.4 | 99.7 | 89.5 | 99 | 99.1 | 89.4 | 40.6 | 69.5 | 27.6 | inhibition of growth at 5 µM [21]: 43.5%; inhibition of growth at 5 µM [22]: 66.6%; inhibition of growth at 10 µM [23]: 77.4%; inhibition of growth at 20 µM [24]: 99.2%; inhibition of growth at 20 µM [25]: 100%; inhibition of growth at 5 µM [26]: 49.6%; inhibition of growth at 20 µM [27]: 99.5%; inhibition of growth at 5 µM [28]: 36.1%; inhibition of growth at […] [29]: -1.97%; inhibition of growth at […] [30]: -3.7%; inhibition of growth at 10 µM [31]: 89.9%; inhibition of growth at 20 µM [32]: 100%; inhibition of growth at 5 µM [33]: 99.1%; inhibition of growth at 10 µM [34]: 88.4%
